Data set [1] has as its system SK-BR-3. As to the kind of experiment: Induction of heat shock response in human SK-BR-3 cells at 10 uM incubated for 18 hrs by Western blot analysis. The settings on record: sk-br-3, 18 h. The class given is cell-based. For orientation: Immunoblotting shows a protein as a band on a membrane.
In data set [2] the target is T1, Heat shock protein HSP 90-alpha (Homo sapiens, UniProt P07900).
Description: Inhibition of FITC-GDA binding to human HSP90-alpha incubated for 2 hrs by fluorescence polarization assay
Data set [3] deals with T2, Heat shock protein HSP 90-beta (Homo sapiens, UniProt P08238).
Description: Inhibition of FITC-GDA binding to human HSP90-beta incubated for 2 hrs by fluorescence polarization assay
The target of data set [4] is T2, Heat shock protein HSP 90-beta. The conditions noted are these: HCT-116, dose 300-1000 nM, time 24.0 hrs.
For data set [5], the target named is T1, Heat shock protein HSP 90-alpha. The conditions noted are these: HCT-116, dose 300-1000 nM, time 24.0 hrs.
Data set [6] deals with Panel NCI-60 (60 carcinoma cell lines). As to the kind of experiment: Growth inhibition of human NCI60 cells incubated for 72 hrs by Cell Titer-Glo luminescent cell viability assay. The class given is functional. In general terms: In ATP-based viability assays light output follows the ATP content of the culture.
The target in data set [7] is T2, Heat shock protein HSP 90-beta. The settings on record: HCT-116, dose 300-1000 nM, time 24.0 hrs. This is another data set of the same source.
Data set [8] shares this target. The settings on record: HCT-116, dose 300-1000 nM, time 24.0 hrs. This is another data set of the same source.
Data set [9] shares this target. The settings on record: HCT-116, dose 300-1000 nM, time 24.0 hrs. The source holds these as a separate data set.
For the next data set, the target named is Endoplasmin (Canis lupus familiaris, UniProt P41148). As to the kind of experiment: Inhibition of FITC-GDA binding to dog GRP94 incubated for 2 hrs by fluorescence polarization assay. A general note: In fluorescence polarisation assays a small probe gives low polarisation when free and higher when bound to something large.
For data set [10], the system named is SK-BR-3. As to the kind of experiment: Induction of heat shock response in human SK-BR-3 cells at 1 uM incubated for 18 hrs by Western blot analysis. It is filed as cell-based. The settings on record: sk-br-3, 18 h.
Another data set has as its system UMUC3. The settings on record: time 72 hrs.
Data set [11] can be described thus: Growth inhibition of human LNCaP-LN3 cells incubated for 72 hrs by Cell Titer-Glo luminescent cell viability assay. It is filed as functional.
A further data set has as its system PC-3. As to the kind of experiment: Growth inhibition of human PC-3 cells incubated for 72 hrs by Cell Titer-Glo luminescent cell viability assay. The class given is functional.

Molecules are shown by their SMILES. Calls of active or inactive are those of the source. The calls are words filed in the database; no cut-off is given here.

T2 sequence (P08238 whole entry): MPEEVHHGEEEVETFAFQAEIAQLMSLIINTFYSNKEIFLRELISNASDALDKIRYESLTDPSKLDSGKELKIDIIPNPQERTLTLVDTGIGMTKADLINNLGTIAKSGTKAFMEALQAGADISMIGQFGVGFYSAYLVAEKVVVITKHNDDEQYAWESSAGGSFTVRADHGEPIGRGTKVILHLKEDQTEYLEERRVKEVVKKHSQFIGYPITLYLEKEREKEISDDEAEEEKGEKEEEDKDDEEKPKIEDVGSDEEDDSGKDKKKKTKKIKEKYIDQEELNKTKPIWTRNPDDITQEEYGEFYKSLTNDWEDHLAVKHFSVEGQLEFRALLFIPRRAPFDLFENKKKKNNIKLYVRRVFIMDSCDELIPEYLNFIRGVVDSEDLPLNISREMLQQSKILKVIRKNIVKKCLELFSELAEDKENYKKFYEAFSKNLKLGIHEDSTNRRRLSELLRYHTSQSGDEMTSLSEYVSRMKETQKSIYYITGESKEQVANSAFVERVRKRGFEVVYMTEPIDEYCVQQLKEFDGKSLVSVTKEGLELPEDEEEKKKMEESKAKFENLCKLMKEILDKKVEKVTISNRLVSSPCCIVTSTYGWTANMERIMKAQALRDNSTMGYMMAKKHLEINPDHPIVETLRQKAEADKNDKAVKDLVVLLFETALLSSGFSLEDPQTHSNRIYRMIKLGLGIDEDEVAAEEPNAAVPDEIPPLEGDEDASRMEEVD
Sequence of Endoplasmin (P41148 whole entry): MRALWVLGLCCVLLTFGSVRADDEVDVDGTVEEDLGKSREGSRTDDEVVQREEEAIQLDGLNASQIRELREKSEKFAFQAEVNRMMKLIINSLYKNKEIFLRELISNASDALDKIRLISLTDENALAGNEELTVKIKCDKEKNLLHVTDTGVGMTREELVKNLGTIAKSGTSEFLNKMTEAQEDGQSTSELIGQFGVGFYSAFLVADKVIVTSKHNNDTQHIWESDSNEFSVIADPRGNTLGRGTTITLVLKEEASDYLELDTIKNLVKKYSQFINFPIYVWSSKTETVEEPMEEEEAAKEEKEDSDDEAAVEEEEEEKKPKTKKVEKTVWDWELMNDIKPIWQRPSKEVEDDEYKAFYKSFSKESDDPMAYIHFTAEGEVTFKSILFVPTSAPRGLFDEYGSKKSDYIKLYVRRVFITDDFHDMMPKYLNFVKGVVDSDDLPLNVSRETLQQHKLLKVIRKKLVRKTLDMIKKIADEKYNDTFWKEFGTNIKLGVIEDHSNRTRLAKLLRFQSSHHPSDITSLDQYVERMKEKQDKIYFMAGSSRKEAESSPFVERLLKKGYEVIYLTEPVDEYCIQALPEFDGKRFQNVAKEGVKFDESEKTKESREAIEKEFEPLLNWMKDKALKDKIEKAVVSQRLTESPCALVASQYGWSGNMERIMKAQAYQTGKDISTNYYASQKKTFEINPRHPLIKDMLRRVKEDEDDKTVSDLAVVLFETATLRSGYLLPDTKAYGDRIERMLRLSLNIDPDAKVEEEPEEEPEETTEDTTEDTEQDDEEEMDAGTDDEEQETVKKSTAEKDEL

As for `CCCc1cc2cc(-n3nc(C)c4c3CC(C)(C)CC4=O)cc(N3CCC(O)CC3)c2c(=O)[nH]1`, the Activity result with SK-BR-3 [1] is listed as “Non-Toxic”.

Take `CCc1cc2cc(-n3nc(C)c4c3CC(C)(C)CC4=O)cc(N[C@H]3CC[C@H](O)CC3)c2c(=O)[nH]1`: the results for the IC50 in data set [2] and in data set [3] were 180 nM and 68 nM, respectively.

`CCCCc1cc2cc(-n3nc(C)c4c3CC(C)(C)CC4=O)cc(N[C@H]3CC[C@H](O)CC3)c2c(=O)[nH]1`: the IC50 in data set [2] was over 50000 nM; in [3], 156 nM.

As to `CCCc1cc2cc(-n3nc(C)c4c3CC(C)(C)CC4=O)cc(N3CCN(C)CC3)c2c(=O)[nH]1`, the IC50 in data set [2] stood at 8520 nM; in data set [3], 426 nM.

As to `Cc1nn(-c2cc(N[C@H]3CC[C@H](O)CC3)c3c(=O)[nH]c(C(C)(C)C)cc3c2)c2c1C(=O)CC(C)(C)C2`, the IC50 in data set [2] and in data set [3] was over 50000 nM throughout.

As to `Cc1nn(-c2cc(N[C@H]3CC[C@H](O)CC3)c3c(=O)[nH]c(C(C)C)cc3c2)c2c1C(=O)CC(C)(C)C2`, the results for the IC50 in [2] and in [3] were 173 nM and 51 nM, respectively.

Consider `Cc1nn(-c2cc(N[C@H]3CC[C@H](O)CC3)c3c(=O)[nH]c(C4CC4)cc3c2)c2c1C(=O)CC(C)(C)C2`, for which the 50% inhibitory concentration (IC50) worked out at 1880 nM in data set [2] and 946 nM in data set [3].

On to `CCCc1cc2cc(-n3nc(C)c4c3CC(C)(C)CC4=O)cc(N(C)CCN(CC)CC)c2c(=O)[nH]1`, for which the IC50 is over 50000 nM in [2] and 4460 nM in [3].

In the case of `CCCC1Cc2cc(-n3nc(C)c4c3CC(C)(C)CC4=O)cc(N[C@H]3CC[C@H](O)CC3)c2C(=O)N1` (stereo partly drawn), the values for the half-inhibitory concentration (IC50) in data set [2] and in data set [3] were 1600 nM and 33 nM, respectively. In addition, the inhibition result in [4], in data set [7], in data set [8] and in [9] was “Active” in each case. The inhibition entry in data set [5] is “inactive”. Besides, the GI50 in data set [6] was under 100 nM.

With `CCCC1Cc2cc(-n3nc(C)c4c3CC(C)(C)CC4=O)cc(N3CCC(O)CC3)c2C(=O)N1` (stereo not drawn), the IC50 was over 10000 nM in data set [2] and over 5000 nM in data set [3].

On to `Cc1cc2cc(-n3nc(C)c4c3CC(C)(C)CC4=O)cc(N[C@H]3CC[C@H](O)CC3)c2c(=O)[nH]1`, for which the IC50 in data set [2] turned out to be 294 nM; in data set [3], 101 nM.

For `Cc1nn(-c2cc(N[C@H]3CC[C@H](O)CC3)c3c(=O)[nH]c(CO)cc3c2)c2c1C(=O)CC(C)(C)C2`, the values for the IC50 in data set [2] and in data set [3] were 824 nM and 233 nM, respectively.

Compound `CC(C)c1cc(C(=O)N2Cc3ccccc3C2)c(O)c2cnoc12` yielded a concentration for half-maximal inhibition (IC50) at Endoplasmin of 8.48 µM.

Consider `CCCc1cc2cc(-n3nc(C)c4c3CC(C)(C)CC4=O)cc(N3CCN(C(=O)OC(C)(C)C)CC3)c2c(=O)[nH]1`, for which the IC50 in data set [2] is over 50000 nM; in data set [3], 463 nM.

For `Cc1nn(-c2cc(N[C@H]3CC[C@H](O)CC3)c3c(=O)[nH]c(CC(C)C)cc3c2)c2c1C(=O)CC(C)(C)C2`, the IC50 is over 50000 nM in data set [2] and 264 nM in [3].

As for `CCCc1cc2cc(-n3nc(C)c4c3CC(C)(C)CC4=O)cc(N3CCNCC3)c2c(=O)[nH]1`, the IC50 was over 50000 nM in data set [2] and 4470 nM in [3].

`Cc1cn(-c2cc3c(c(C4CCCC4)c2)C(=O)NCC3)c2c1C(=O)CC(C)(C)C2` registered an IC50 at Endoplasmin of over 10 µM.

Take `COC1=C2C[C@@H](C)C[C@H](OC)[C@H](O)[C@@H](C)/C=C(\C)[C@H](OC(N)=O)[C@@H](OC)/C=C\C=C(/C)C(=O)NC(=CC1=O)C2=O` [GELDANAMYCIN]: the Activity entry with SK-BR-3 [10] is “Toxic”.

On to `COCc1cc2cc(-n3nc(C)c4c3CC(C)(C)CC4=O)cc(N[C@H]3CC[C@H](O)CC3)c2c(=O)[nH]1`, for which the IC50 in data set [2] stood at 306 nM; in data set [3] it was 159 nM.

On to `CCCc1cc2cc(-n3nc(C)c4c3CC(C)(C)CC4=O)cc(N3CCOCC3)c2c(=O)[nH]1`, for which the IC50 was over 50000 nM in data set [2] and 121 nM in [3].

For `CCCc1cc2cc(-n3nc(C)c4c3CC(C)(C)CC4=O)cc(N[C@H]3CC[C@H](O)CC3)c2c(=O)[nH]1`, the GI50 in the data set with UMUC3 is 450 nM; in data set [11] it was 1070 nM; in data set [6], under 100 nM; with PC-3 it was 1560 nM.

For `CCCc1cc2cc(-n3nc(C)c4c3CC(C)(C)CC4=O)cc(NC3CCN(C)CC3)c2c(=O)[nH]1`, the IC50 in data set [2] was 17100 nM; in data set [3], 513 nM.

Broadly, the IC50 is the midpoint of a concentration-inhibition curve. Usually GI50 stands for the concentration that inhibits growth by half. High values mean less potent growth inhibition, low ones more potent growth inhibition.
